# Assay results from ChEMBL document CHEMBL1201862, “PubChem BioAssay data set” (2004).
#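 Cultured in 96-well plates, cells were exposed to test compound for 48 hours across five concentrations. GI50 is the concentration that inhibits growth by half.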 The source made the active and inactive calls. Cut-off read from the data, not from the text of the source: active = GI50 up to about 1.1 µM and inactive = higher.
# Key:
# Experiment in all cases: inhibition of tumour cell growth, NCI panel, 48 h
# SNB-19 = system: SNB-19
# SK-MEL-5 = system: SK-MEL-5
# NCI-H23 = system: NCI-H23
# SR = system: SR
# SW-620 = system: SW-620
# HOP-62 = system: HOP-62
# A549 = system: A549
# SK-MEL-28 = system: SK-MEL-28
# OVCAR-8 = system: OVCAR-8
# SK-MEL-2 = system: SK-MEL-2
# SF-295 = system: SF-295
# UACC-62 = system: UACC-62
# SNB-75 = system: SNB-75
# ACHN = system: ACHN
# A498 = system: A498
# LOX IMVI = system: LOX IMVI
# MDA-MB-231 = system: MDA-MB-231
# 786-0 = system: 786-0
# SN12C = system: SN12C
# SF-539 = system: SF-539
# CCRF-CEM = system: CCRF-CEM
# NCI-H460 = system: NCI-H460
# MDA-N = system: MDA-N
# UACC-257 = system: UACC-257
# NCI-H522 = system: NCI-H522
# HT-29 = system: HT-29
# M14 = system: M14
# DU-145 = system: DU-145
# NCI/ADR-RES = system: NCI/ADR-RES
# KM12 = system: KM12
# UO-31 = system: UO-31
# OVCAR-3 = system: OVCAR-3
# BT-549 = system: BT-549
# CAKI-1 = system: CAKI-1
# HL-60 = system: HL-60
# MOLT-4 = system: MOLT-4
# Malme-3M = system: Malme-3M
# MCF7 = system: MCF7
# TK-10 = system: TK-10
# PC-3 = system: PC-3
# Hs-578T = system: Hs-578T
# RPMI-8226 = system: RPMI-8226
# NCI-H226 = system: NCI-H226
# IGROV-1 = system: IGROV-1
# T47D = system: T47D
# OVCAR-5 = system: OVCAR-5
# K562 = system: K562
# RXF 393 = system: RXF 393
# SF-268 = system: SF-268
# HCT-15 = system: HCT-15
# SK-OV-3 = system: SK-OV-3
# MDA-MB-435 = system: MDA-MB-435
# HCT-116 = system: HCT-116
# OVCAR-4 = system: OVCAR-4
# COLO 205 = system: COLO 205
# U-251 = system: U-251
# HCC 2998 = system: HCC 2998
# EKVX = system: EKVX
# HOP-92 = system: HOP-92
smiles,measurement,setting,value
N#Cc1c(-c2ccccc2)c(C#N)c(=S)n(C2OC(CO)C(O)C(O)C2O)c1O (stereo not given),GI50,SNB-19,> 100 µM (inactive)
same,GI50,SK-MEL-5,> 100 µM (inactive)
same,GI50,NCI-H23,> 100 µM (inactive)
same,GI50,SR,> 100 µM (inactive)
same,GI50,SW-620,> 100 µM (inactive)
same,GI50,HOP-62,> 100 µM (inactive)
same,GI50,A549,> 100 µM (inactive)
same,GI50,SK-MEL-28,> 100 µM (inactive)
same,GI50,OVCAR-8,> 100 µM (inactive)
same,GI50,SK-MEL-2,> 100 µM (inactive)
same,GI50,SF-295,> 100 µM (inactive)
same,GI50,UACC-62,> 100 µM (inactive)
same,GI50,SNB-75,> 100 µM (inactive)
same,GI50,ACHN,> 100 µM (inactive)
same,GI50,A498,> 100 µM (inactive)
same,GI50,LOX IMVI,> 100 µM (inactive)
same,GI50,MDA-MB-231,> 100 µM (inactive)
same,GI50,786-0,> 100 µM (inactive)
same,GI50,SN12C,> 100 µM (inactive)
same,GI50,SF-539,> 100 µM (inactive)
same,GI50,CCRF-CEM,> 100 µM (inactive)
same,GI50,NCI-H460,> 100 µM (inactive)
same,GI50,MDA-N,> 100 µM (inactive)
same,GI50,UACC-257,> 100 µM (inactive)
same,GI50,NCI-H522,> 100 µM (inactive)
same,GI50,HT-29,> 100 µM (inactive)
same,GI50,M14,> 100 µM (inactive)
same,GI50,DU-145,> 100 µM (inactive)
same,GI50,NCI/ADR-RES,> 100 µM (inactive)
same,GI50,KM12,> 100 µM (inactive)
same,GI50,UO-31,> 100 µM (inactive)
same,GI50,OVCAR-3,> 100 µM (inactive)
same,GI50,BT-549,> 100 µM (inactive)
same,GI50,CAKI-1,> 100 µM (inactive)
same,GI50,HL-60,> 100 µM (inactive)
same,GI50,MOLT-4,> 100 µM (inactive)
same,GI50,Malme-3M,> 100 µM (inactive)
same,GI50,MCF7,> 100 µM (inactive)
same,GI50,TK-10,> 100 µM (inactive)
same,GI50,PC-3,> 100 µM (inactive)
same,GI50,Hs-578T,> 100 µM (inactive)
same,GI50,RPMI-8226,> 100 µM (inactive)
same,GI50,NCI-H226,> 100 µM (inactive)
same,GI50,IGROV-1,> 100 µM (inactive)
same,GI50,T47D,> 100 µM (inactive)
same,GI50,OVCAR-5,> 100 µM (inactive)
same,GI50,K562,> 100 µM (inactive)
same,GI50,RXF 393,> 100 µM (inactive)
same,GI50,SF-268,> 100 µM (inactive)
same,GI50,HCT-15,> 100 µM
same,GI50,SK-OV-3,> 100 µM (inactive)
same,GI50,MDA-MB-435,> 100 µM (inactive)
O=c1c(C(c2ccc3c(c2)Cc2ccccc2-3)c2c(O)oc3ccccc3c2=O)c(O)oc2ccccc12,GI50,SNB-19,47.1 µM (inactive)
same,GI50,SK-MEL-5,24.5 µM (inactive)
same,GI50,NCI-H23,29.4 µM (inactive)
same,GI50,SW-620,29.8 µM (inactive)
same,GI50,HOP-62,32.5 µM (inactive)
same,GI50,A549,19.5 µM (inactive)
same,GI50,SK-MEL-28,22.5 µM (inactive)
same,GI50,OVCAR-8,> 100 µM (inactive)
same,GI50,HCT-116,35.6 µM (inactive)
same,GI50,OVCAR-4,31.8 µM (inactive)
same,GI50,SK-MEL-2,31.9 µM (inactive)
same,GI50,SF-295,25.2 µM (inactive)
same,GI50,UACC-62,22.3 µM (inactive)
same,GI50,SNB-75,20.7 µM (inactive)
same,GI50,ACHN,23.9 µM (inactive)
same,GI50,A498,38.5 µM (inactive)
same,GI50,LOX IMVI,26.3 µM (inactive)
same,GI50,MDA-MB-231,28.2 µM (inactive)
same,GI50,786-0,25.9 µM (inactive)
same,GI50,SN12C,20.4 µM (inactive)
same,GI50,SF-539,21.4 µM (inactive)
same,GI50,COLO 205,20.4 µM (inactive)
same,GI50,CCRF-CEM,40.4 µM (inactive)
same,GI50,NCI-H460,25.9 µM (inactive)
same,GI50,MDA-N,19.9 µM (inactive)
same,GI50,UACC-257,34.6 µM (inactive)
same,GI50,NCI-H522,21.9 µM (inactive)
same,GI50,HT-29,> 100 µM (inactive)
same,GI50,M14,20.5 µM (inactive)
same,GI50,DU-145,33.6 µM (inactive)
same,GI50,NCI/ADR-RES,> 100 µM (inactive)
same,GI50,KM12,22.3 µM (inactive)
same,GI50,UO-31,16.7 µM (inactive)
same,GI50,OVCAR-3,31 µM (inactive)
same,GI50,BT-549,27.4 µM (inactive)
same,GI50,CAKI-1,20.3 µM (inactive)
same,GI50,HL-60,29.2 µM (inactive)
same,GI50,MOLT-4,40.6 µM (inactive)
same,GI50,Malme-3M,26.2 µM (inactive)
same,GI50,MCF7,22.9 µM (inactive)
same,GI50,TK-10,56.5 µM (inactive)
same,GI50,U-251,23.9 µM (inactive)
same,GI50,PC-3,37.8 µM (inactive)
same,GI50,Hs-578T,25.6 µM (inactive)
same,GI50,RPMI-8226,44.9 µM (inactive)
same,GI50,NCI-H226,> 100 µM (inactive)
same,GI50,IGROV-1,39.3 µM (inactive)
same,GI50,T47D,41.5 µM (inactive)
same,GI50,OVCAR-5,23.7 µM (inactive)
same,GI50,HCC 2998,18.7 µM (inactive)
same,GI50,K562,10 µM (inactive)
same,GI50,RXF 393,18.2 µM (inactive)
same,GI50,EKVX,48.9 µM (inactive)
same,GI50,HOP-92,19.1 µM (inactive)
same,GI50,SF-268,23.9 µM (inactive)
same,GI50,HCT-15,22.2 µM
same,GI50,SK-OV-3,31.3 µM (inactive)
same,GI50,MDA-MB-435,31 µM (inactive)
